In brackets after ≈: the same amount, converted by molar mass.
How the values were obtained:
Experiment in all cases: ≥ marks a high value that may be exact or a test limit, other limits are often not marked, values filed in µg/mL are converted to µM
[1] = system: Candida albicans ATCC 2002
[2] = system: Escherichia coli ATCC 25922
[3] = system: Pseudomonas aeruginosa CMCCB 10104
[4] = system: Staphylococcus aureus ATCC 25923

Row | MIC [1] [µM] | MIC [2] [µM] | MIC [3] [µM] | MIC [4] [µM] | Compound
1 | 3.4 (≈ 11.2 µg/mL) | 3.4 (≈ 11.2 µg/mL) | 13.6 (≈ 44.8 µg/mL) | 6.81 (≈ 22.4 µg/mL) | CC[C@H](C)[C@H](NC(=O)[C@H](CC(C)C)NC(=O)[C@H](CC(C)C)NC(=O)[C@H](CC(N)=O)NC(=O)[C@H](CCCCN)NC(=O)[C@@H](NC(=O)[C@@H](NC(=O)[C@H](C)NC(=O)[C@H](CC(C)C)NC(=O)[C@@H](NC(=O)CN)C(C)C)[C@@H](C)O)C(C)C)C(=O)NCC(=O)N[C@H](C(=O)NCC(=O)N[C@@H](CC(=O)O)C(=O)NCC(=O)N[C@@H](C)C(=O)N[C@@H](C)C(=O)N[C@@H](CCC(N)=O)C(=O)N[C@@H](CO)C(=O)N[C@H](C(=O)N[C@@H](CC(C)C)C(=O)N[C@@H](CCCCN)C(=O)N[C@H](C(=O)N[C@@H](CC(C)C)C(=O)N[C@@H](CO)C(=O)N[C@H]1CSSC[C@@H](C(=O)O)NC(=O)[C@H](CC(=O)O)NC(=O)[C@H](CC(N)=O)NC(=O)[C@H](CO)NC(=O)[C@H](CC(C)C)NC(=O)[C@H](CCCCN)NC1=O)[C@@H](C)O)C(C)C)[C@@H](C)O [GVLATVKNLLIGTGDGAAQSVLKTLSCKLSNDC]
2 | 1.76 (≈ 5.8 µg/mL) | 1.76 (≈ 5.8 µg/mL) | 7.05 (≈ 23.2 µg/mL) | 3.52 (≈ 11.6 µg/mL) | CC[C@H](C)[C@H](NC(=O)[C@H](CC(C)C)NC(=O)[C@H](CC(C)C)NC(=O)[C@H](CC(=O)O)NC(=O)[C@H](CCCCN)NC(=O)[C@@H](NC(=O)[C@@H](NC(=O)CNC(=O)[C@H](CC(C)C)NC(=O)[C@@H](NC(=O)CN)C(C)C)[C@@H](C)O)C(C)C)C(=O)NCC(=O)N[C@@H](C)C(=O)NCC(=O)N[C@@H](CCCCN)C(=O)N[C@@H](CO)C(=O)N[C@@H](C)C(=O)N[C@@H](C)C(=O)N[C@@H](CCC(N)=O)C(=O)N[C@@H](CO)C(=O)N[C@H](C(=O)N[C@@H](CC(C)C)C(=O)N[C@@H](CCCCN)C(=O)N[C@H](C(=O)N[C@@H](CC(C)C)C(=O)N[C@@H](CO)C(=O)N[C@H]1CSSC[C@@H](C(=O)O)NC(=O)[C@H](CC(=O)O)NC(=O)[C@H](CC(N)=O)NC(=O)[C@H](CO)NC(=O)[C@H]([C@@H](C)CC)NC(=O)[C@H](CCCCN)NC1=O)[C@@H](C)O)[C@@H](C)O [GVLGTVKDLLIGAGKSAAQSTLKTLSCKISNDC]
3 | 2.26 (≈ 5.8 µg/mL) | 2.26 (≈ 5.8 µg/mL) | 4.52 (≈ 11.6 µg/mL) | 4.52 (≈ 11.6 µg/mL) | CC[C@H](C)[C@H](N)C(=O)N[C@@H](CC(C)C)C(=O)N1CCC[C@H]1C(=O)N[C@@H](Cc1ccccc1)C(=O)N[C@H](C(=O)N[C@@H](C)C(=O)NCC(=O)N[C@H](C(=O)N[C@@H](C)C(=O)N[C@@H](C)C(=O)N[C@@H](CCC(=O)O)C(=O)N[C@@H](CCSC)C(=O)N[C@@H](CCSC)C(=O)N[C@@H](CCC(N)=O)C(=O)N[C@@H](Cc1cnc[nH]1)C(=O)N[C@H](C(=O)N[C@@H](Cc1ccc(O)cc1)C(=O)N[C@H]1CSSC[C@@H](C(=O)O)NC(=O)[C@H](CCCCN)NC(=O)[C@H](CCCCN)NC(=O)[C@H](CO)NC(=O)[C@H](C)NC(=O)[C@H](C)NC1=O)C(C)C)C(C)C)C(C)C [ILPFVAGVAAEMMQHVYCAASKKC]
4 | ≥ 86.1 | > 86.1 | ≥ 86.1 | > 86.1 | CC[C@H](C)[C@H](NC(=O)[C@H](Cc1ccccc1)NC(=O)[C@H](CCCN=C(N)N)NC(=O)[C@@H](NC(=O)[C@@H]1CCCN1C(=O)[C@H](CO)NC(=O)[C@H](CC(C)C)NC(=O)[C@H](C)NC(=O)[C@H](C)NC(=O)[C@H](CCCCN)NC(=O)[C@H](CC(N)=O)NC(=O)[C@H](CCSC)NC(=O)CNC(=O)[C@@H](NC(=O)[C@H](CCC(N)=O)NC(=O)[C@H](CC(=O)O)NC(=O)[C@H](C)NC(=O)[C@@H](N)CO)[C@@H](C)O)[C@@H](C)CC)C(=O)N[C@@H](CO)C(=O)N[C@@H](CCCCN)C(=O)N[C@@H](CO)C(=O)N[C@H](C(=O)O)C(C)C [SADQTGMNKAALSPIRFISKSV]

From DBAASP
